# Measurements reported in patent US20120129842A1, “BISTHIAZOLE INHIBITORS OF PRO-MATRIX METALLOPROTEINASE ACTIVATION” (priority 2010, published 2012).
# What was measured:
# [1] = biological target: T1, proMMP9(20-445;ΔFnII) (SEQ ID NO:6) (Homo sapiens, UniProt P14780, DEL216-390); test: ThermoFluor binding assay with proMMP9(20-445;ΔFnII); settings: pH 7.0
# T1 construct: start methionine (N); made in house; host or cells: E. coli BL21(DE3) RIL
# T1 sequence (P14780 with tags, fused parts or gaps DEL216-390): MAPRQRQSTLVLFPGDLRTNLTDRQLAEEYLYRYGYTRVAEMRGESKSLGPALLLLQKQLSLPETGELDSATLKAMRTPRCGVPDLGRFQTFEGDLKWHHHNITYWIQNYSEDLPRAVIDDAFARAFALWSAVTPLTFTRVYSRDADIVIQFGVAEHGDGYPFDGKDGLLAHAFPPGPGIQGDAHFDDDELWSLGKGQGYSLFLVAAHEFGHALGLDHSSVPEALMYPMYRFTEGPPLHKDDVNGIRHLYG
# Method in brief: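 proMMP9(20-445;ΔFnII) at 2.8 μM with 50 μM 1,8-ANS in 50 mM HEPES pH 7.0, 100 mM NaCl, 0.001% Tween-20, 2.5 mM MgCl2, 300 μM CaCl2; compounds serially diluted in DMSO. Heated 40–90 °C at 1 °C/min, fluorescence read at 500±25 nm. Tm fit by standard equations; binding fit using DSC/TF-derived thermodynamic parameters.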
# [2] = biological target: T2, proMMP13(1-268) (SEQ ID NO:7) (Homo sapiens, UniProt P45452); test: ThermoFluor binding assay with proMMP13(1-268); design: 6xHis (C); made in house; settings: pH 7.0
# Method in brief: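 Thermal shift binding with 3.5 μM protein and 25 μM 1,8-ANS in 50 mM HEPES pH 7.0, 100 mM NaCl, 0.001% Tween-20, 2.5 mM MgCl2, 300 μM CaCl2. Samples were heated 40 to 90 °C at 1 °C/min, fluorescence read at 500 nm. Tm shifts across an 11-point DMSO dilution series were fitted with DSC-derived thermodynamic parameters.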
# [3] = biological target: T2, proMMP13(1-268) (SEQ ID NO:7); test: ProMMP13/Plasmin P126 Activation Assay; assay type: biochemical; design: 6xHis (C); made in house; host or cells: HEK293 (transient, secreted); settings: 8 nM proMMP13, 16 nM plasmin, 40 min 37° C.
# Procedure: On the day of assay, proMMP13(1-268) (SEQ ID NO:7) purified from HEK293 cells and plasmin were diluted to 160 nM and 320 nM, respectively, in assay buffer. The reaction volume was 50 μL. […] The plate was sealed and incubated for 40 min at 37° C. […] Plasmin was not reactive towards P-126 substrate under these conditions.
smiles,measurement,setting,value
"Cc1nc(C)c(-c2csc(Nc3cc(S(N)(=O)=O)ccc3OC(C)C)n2)s1 [Example 64, 3-(2′,4′-Dimethyl-[4,5′]bithiazolyl-2-ylamino)-4-isopropoxy-benzenesulfonamide.HBr]",Kd,[1],100 nM
same,Kd,[2],140 nM
same,IC50,[3],3300 nM
